Reference: patent US10344025B2, “GLS1 inhibitors for treating disease” (Board of Regents, The University of Texas System, priority 2014, dated 2019)

Columns and labels:
A549 cells = assay: Proliferation Assay (A549 viability, Cell Titer Fluor, 72 hours); type: cell-based; conditions: Homo sapiens
Summary of the method: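 Cell Titer Fluor fluorescence after 72 h compound treatment (0.5% DMSO, 37 °C, 5% CO2) of A549 cells plated 24 h earlier at 1000/well. Four-parameter logistic fitting gave IC50.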

[1] = molecular target: purified recombinant human GAC (GLS1) (Homo sapiens (Human), UniProt O94925); assay: GLS1 Enzymatic Activity Assay (dual-coupled enzymatic assay, resorufin/Amplex UltraRed readout); type: biochemical;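 further: glutamate from GAC coupled via glutamate oxidase and peroxidase to resorufin, read as fluorescence (ex 530, em 590 nm) kinetically or at 20 min, four-parameter logistic IC50 fit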
Sequence of purified recombinant human GAC (GLS1) (O94925 other isoform, or with tags, fused parts or gaps): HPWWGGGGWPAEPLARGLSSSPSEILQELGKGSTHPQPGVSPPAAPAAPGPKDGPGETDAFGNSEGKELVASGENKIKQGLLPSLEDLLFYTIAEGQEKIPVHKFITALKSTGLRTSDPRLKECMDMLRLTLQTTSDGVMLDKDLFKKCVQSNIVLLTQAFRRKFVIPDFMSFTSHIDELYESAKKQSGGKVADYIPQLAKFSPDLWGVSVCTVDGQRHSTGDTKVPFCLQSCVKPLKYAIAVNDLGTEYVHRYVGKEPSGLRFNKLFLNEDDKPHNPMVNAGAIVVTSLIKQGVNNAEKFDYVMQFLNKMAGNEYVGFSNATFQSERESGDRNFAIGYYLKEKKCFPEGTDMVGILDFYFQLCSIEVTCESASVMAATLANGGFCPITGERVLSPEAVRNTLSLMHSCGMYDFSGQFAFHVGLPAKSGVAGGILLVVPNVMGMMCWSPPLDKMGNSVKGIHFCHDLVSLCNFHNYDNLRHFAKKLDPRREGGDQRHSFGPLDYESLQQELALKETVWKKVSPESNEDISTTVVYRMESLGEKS

O=C(NCc1cccc(OC(F)(F)F)c1)c1cn(CCC(F)Cn2cc(C(=O)NCc3cncc(C(F)(F)F)c3)nn2)nn1 (stereo not shown) [Example 477, 1-{2-fluoro-4-[4-({[3-(trifluoromethoxy)phenyl]methyl}carbamoyl)-1H-1,2,3-triazol-1-yl]butyl}-N-{[5-(trifluoromethyl)pyridin-3-yl]methyl}-1H-1,2,3-triazole-4-carboxamide]
EC50 (A549 cells; A549, 72 h): < 100 nM
IC50 [1]: < 100 nM

O=C(NCc1cc(C(F)(F)F)ccn1)c1cn(CCC(F)Cn2cc(C(=O)NCc3cncc(C(F)(F)F)c3)nn2)nn1 (stereo not shown) [Example 145, 1-{3-fluoro-4-[4-({[5-(trifluoromethyl)pyridin-3-yl]methyl}carbamoyl)-1H-1,2,3-triazol-1-yl]butyl}-N-1{[4-(trifluoromethyl)pyridin-2-yl]methyl}-1H-1,2,3-triazole-4-carboxamide]
EC50 (A549 cells; A549, 72 h): < 100 nM
IC50 [1]: < 100 nM

O=C(Cc1cccnc1)Nc1cn(CCCCn2cc(C(=O)NCc3cccc(OC(F)(F)F)c3)nn2)nn1 [Example 294, 1-(4-{4-[2-(pyridin-3-yl)acetamido]-1H-1,2,3-triazol-1-yl}butyl)-N-{[3-(trifluoromethoxy)phenyl]methyl}-1H-1,2,3-triazole-4-carboxamide]
EC50 (A549 cells; A549, 72 h): 100 to 500 nM
IC50 [1]: < 100 nM

Cc1ccc(CC(=O)Nc2cn(CCCCn3cc(C(=O)NCc4ccccn4)nn3)nn2)cn1 [Example 306, 1-(4-{4-[2-(6-methylpyridin-3-yl)acetamido]-1H-1,2,3-triazol-1-yl}butyl)-N-(pyridin-2-ylmethyl)-1H-1,2,3-triazole-4-carboxamide]
EC50 (A549 cells; A549, 72 h): 500 to 5000 nM
IC50 [1]: 100 to 500 nM

CC(=O)Nc1ccc(CCCCc2nnc(C(=O)NCc3cccc(OC(F)(F)F)c3)s2)nn1 [Example 599, 5-(4-(6-acetamidopyridazin-3-yl)butyl)-N-(3-(trifluoromethoxy)benzyl)-1,3,4-thiadiazole-2-carboxamide]
EC50 (A549 cells; A549, 72 h): < 100 nM
IC50 [1]: < 100 nM

O=C(CN1CC(F)(F)C1)Nc1cn(CC(F)CCn2cc(C(=O)NCc3ccccn3)nn2)nn1 (stereo not shown) [Example 392, 1-(4-{4-[2-(3,3-difluoroazetidin-1-yl)acetamido]-1H-1,2,3-triazol-1-yl}-3-fluorobutyl)-N-(pyridin-2-ylmethyl)-1H-1,2,3-triazole-4-carboxamide]
EC50 (A549 cells; A549, 72 h): > 5000 nM
IC50 [1]: 500 to 5000 nM

CC(=O)Nc1ccc(CCCCc2nnc(C(=O)NCc3cncc(C(F)(F)F)c3)s2)nn1 [Example 602, 5-(4-(6-acetamidopyridazin-3-yl)butyl)-N-((5-(trifluoromethyl)pyridin-3-yl)methyl)-1,3,4-thiadiazole-2-carboxamide]
EC50 (A549 cells; A549, 72 h): < 100 nM
IC50 [1]: < 100 nM

O=C(Cc1ccccc1)Nc1nnc(CCCCn2cc(C(=O)NCCc3ccccc3)nn2)s1 [Example 13, 1-{4-[5-(2-phenylacetamido)-1,3,4-thiadiazol-2-yl]butyl}-N-(2-phenylethyl)-1H-1,2,3-triazole-4-carboxamide]
EC50 (A549 cells; A549, 72 h): 500 to 5000 nM
IC50 [1]: < 100 nM

O=C(CN1CC(F)(F)C1)Nc1cn(CC(F)CCn2cc(C(=O)NCc3ncccc3F)nn2)nn1 (stereo not shown) [Example 410, 1-(4-{4-[2-(3,3-difluoroazetidin-1-yl)acetamido]-1H-1,2,3-triazol-1-yl}-3-fluorobutyl)-N-[(3-fluoropyridin-2-yl)methyl]-1H-1,2,3-triazole-4-carboxamide]
EC50 (A549 cells; A549, 72 h): 500 to 5000 nM
IC50 [1]: 500 to 5000 nM

O=C(Cc1cccc(OC(F)(F)F)c1)Nc1cn(CC(F)CCn2cc(C(=O)NCc3cc(OC(F)(F)F)ccc3F)nn2)nn1 (stereo not shown) [Example 340, 1-[3-fluoro-4-(4-{2-[3-(trifluoromethoxy)phenyl]acetamido}-1H-1,2,3-triazol-1-yl)butyl]-N-{[2-fluoro-5-(trifluoromethoxy)phenyl]methyl}-1H-1,2,3-triazole-4-carboxamide]
EC50 (A549 cells; A549, 72 h): < 100 nM
IC50 [1]: < 100 nM

O=C(Cc1cccc(OC(F)(F)F)c1)Nc1nnc(CCC(F)Cn2cc(C(=O)NCc3cccc(C(F)(F)F)n3)nn2)s1 (stereo not shown) [Example 494, 1-[2-fluoro-4-(5-{2-[3-(trifluoromethoxy)phenyl]acetamido}-1,3,4-thiadiazol-2-yl)butyl]-N-{[6-(trifluoromethyl)pyridin-2-yl]methyl}-1H-1,2,3-triazole-4-carboxamide]
EC50 (A549 cells; A549, 72 h): < 100 nM
IC50 [1]: < 100 nM

O=C(CN1CC(F)(F)C1)Nc1cn(CCCCn2cc(C(=O)NCc3cc(Cl)ccc3F)nn2)nn1 [Example 352, N-[(5-chloro-2-fluorophenyl)methyl]-1-(4-{4-[2-(3,3-difluoroazetidin-1-yl)acetamido]-1H-1,2,3-triazol-1-yl}butyl)-1H-1,2,3-triazole-4-carboxamide]
EC50 (A549 cells; A549, 72 h): 500 to 5000 nM
IC50 [1]: 100 to 500 nM

O=C(NCc1cc(C(F)(F)F)ccn1)c1cn(CCCCn2cc(C(=O)NCC3CC3)nn2)nn1 [Example 89]
EC50 (A549 cells; A549, 72 h): 500 to 5000 nM
IC50 [1]: 500 to 5000 nM

O=C(Cc1ccccn1)Nc1ccc(CCC(F)Cn2cc(C(=O)NCc3cc(C(F)(F)F)ccn3)nn2)nn1 (stereo not shown) [Example 211, 1-(2-fluoro-4-(6-(2-(pyridin-2-yl)acetamido)pyridazin-3-yl)butyl)-N-((4-(trifluoromethyl)pyridin-2-yl)methyl)-1H-1,2,3-triazole-4-carboxamide]
EC50 (A549 cells; A549, 72 h): < 100 nM
IC50 [1]: < 100 nM

O=C(Cc1ccccn1)Nc1nnc(CC[C@@H](F)Cn2cc(C(=O)NCc3cc(C(F)(F)F)ccn3)nn2)s1 [Example 250, (R)-1-(2-fluoro-4-(5-(2-(pyridin-2-yl)acetamido)-1,3,4-thiadiazol-2-yl)butyl)-N-((4-(trifluoromethyl)pyridin-2-yl)methyl)-1H-1,2,3-triazole-4-carboxamide]
EC50 (A549 cells): < 100 nM
IC50 [1]: < 100 nM

COCCNC(=O)c1nnc(CCCCn2cc(C(=O)NCc3ccccc3)nn2)s1 [Example 52, 5-{4-[4-(benzylcarbamoyl)-1H-1,2,3-triazol-1-yl]butyl}-N-(2-methoxyethyl)-1,3,4-thiadiazole-2-carboxamide]
EC50 (A549 cells; A549, 72 h): > 5000 nM
IC50 [1]: 500 to 5000 nM

CCNC(=O)c1cn(CC(F)CCc2nnc(NC(=O)Cc3cccc(OC(F)(F)F)c3)s2)nn1 (stereo not shown) [Example 531, N-ethyl-1-[2-fluoro-4-(5-{2-[3-(trifluoromethoxy)phenyl]acetamido}-1,3,4-thiadiazol-2-yl)butyl]-1H-1,2,3-triazole-4-carboxamide]
EC50 (A549 cells; A549, 72 h): 100 to 500 nM
IC50 [1]: < 100 nM

O=C(NCc1cccc(OC(F)(F)F)c1)c1cn(CCCCn2cc(C(=O)NCc3cncc(C(F)(F)F)c3)nn2)nn1 [Example 80, N-(3-(trifluoromethoxy)benzyl)-1-(4-(4-(((5-(trifluoromethyl)pyridin-3-yl)methyl)carbamoyl)-1H-1,2,3-triazol-1-yl)butyl)-1H-1,2,3-triazole-4-carboxamide]
EC50 (A549 cells; A549, 72 h): < 100 nM
IC50 [1]: < 100 nM

O=C(NCc1cncc(C(F)(F)F)c1)c1cn(CC(F)CCc2nnc(C(=O)NCCC(F)(F)F)s2)nn1 (stereo not shown) [Example 512, 5-{3-fluoro-4-[4-({[5-(trifluoromethyl)pyridin-3-yl]methyl}carbamoyl)-1H-1,2,3-triazol-1-yl]butyl}-N-(3,3,3-trifluoropropyl)-1,3,4-thiadiazole-2-carboxamide]
EC50 (A549 cells; A549, 72 h): 100 to 500 nM
IC50 [1]: 100 to 500 nM

Cc1ccc(CC(=O)Nc2cn(CC(F)CCn3cc(C(=O)NCc4cccc(OC(F)(F)F)c4)nn3)nn2)cn1 (stereo not shown) [Example 342, 1-(3-fluoro-4-{4-[2-(6-methylpyridin-3-yl)acetamido]-1H-1,2,3-triazol-1-yl}butyl)-N-{[3-(trifluoromethoxy)phenyl]methyl}-1H-1,2,3-triazole-4-carboxamide]
EC50 (A549 cells; A549, 72 h): < 100 nM
IC50 [1]: < 100 nM

CNC(=O)c1cn(CCCCc2ccc(NC(=O)Cc3cccc(N4CCOCC4)c3)nn2)nn1 [Example 178, N-methyl-1-[4-(6-{2-[3-(morpholin-4-yl)phenyl]acetamido}pyridazin-3-yl)butyl]-1H-1,2,3-triazole-4-carboxamide]
EC50 (A549 cells; A549, 72 h): 100 to 500 nM
IC50 [1]: < 100 nM

COc1ccnc(CNC(=O)c2cn(CC(F)CCc3nnc(NC(=O)Cc4cc(OC(F)(F)F)ccc4F)s3)nn2)c1 (stereo not shown) [Example 205, 1-(2-fluoro-4-(5-(2-(2-fluoro-5-(trifluoromethoxy)phenyl)acetamido)-1,3,4-thiadiazol-2-yl)butyl)-N-((4-methoxypyridin-2-yl)methyl)-1H-1,2,3-triazole-4-carboxamide]
EC50 (A549 cells; A549, 72 h): < 100 nM
IC50 [1]: < 100 nM

CNC(=O)c1cn(CCC(F)Cn2cc(C(=O)NCc3ccc(C)nc3)nn2)nn1 (stereo not shown) [Example 187, 1-[3-fluoro-4-(4-{[(6-methylpyridin-3-yl)methyl]carbamoyl}-1H-1,2,3-triazol-1-yl)butyl]-N-methyl-1H-1,2,3-triazole-4-carboxamide]
EC50 (A549 cells; A549, 72 h): > 5000 nM
IC50 [1]: 100 to 500 nM

O=C(NCc1cccc(F)c1)c1cn(CCC(F)Cn2cc(C(=O)NCc3cc(C(F)(F)F)ccn3)nn2)nn1 (stereo not shown) [Example 466, 1-[2-fluoro-4-(4-{[(3-fluorophenyl)methyl]carbamoyl}-1H-1,2,3-triazol-1-yl)butyl]-N-{[4-(trifluoromethyl)pyridin-2-yl]methyl}-1H-1,2,3-triazole-4-carboxamide]
EC50 (A549 cells; A549, 72 h): < 100 nM
IC50 [1]: < 100 nM

O=C(NCc1cccc(OC(F)(F)F)c1)c1cn(CCC(F)Cn2cc(C(=O)NCc3ccc(C(F)(F)F)nc3)nn2)nn1 (stereo not shown) [Example 435, 1-{2-fluoro-4-[4-({[3-(trifluoromethoxy)phenyl]methyl}carbamoyl)-1H-1,2,3-triazol-1-yl]butyl}-N-{[6-(trifluoromethyl)pyridin-3-yl]methyl}-1H-1,2,3-triazole-4-carboxamide]
EC50 (A549 cells; A549, 72 h): < 100 nM
IC50 [1]: < 100 nM

O=C(NCc1ccc(C(F)(F)F)cn1)c1cn(CCC(F)Cn2cc(C(=O)NCc3cc(OC(F)(F)F)ccc3F)nn2)nn1 (stereo not shown) [Example 441, 1-{2-fluoro-4-[4-({[5-(trifluoromethyl)pyridin-2-yl]methyl}carbamoyl)-1H-1,2,3-triazol-1-yl]butyl}-N-{[2-fluoro-5-(trifluoromethoxy)phenyl]methyl}-1H-1,2,3-triazole-4-carboxamide]
EC50 (A549 cells; A549, 72 h): < 100 nM
IC50 [1]: < 100 nM
